# US8546579B2, “Bicycloheteroaryl compounds as P2X7 modulators and uses thereof” (Evotec (US) Inc., priority 2006, dated 2013)
# pIC50: −log10 of the molar value.
# Biological target: T1, P2X7 receptor (Homo sapiens, UniProt Q99572)
# T1 construct: host or cells: THP-1 cells differentiated with LPS and IFN-γ
# T1 sequence (Q99572 1-595): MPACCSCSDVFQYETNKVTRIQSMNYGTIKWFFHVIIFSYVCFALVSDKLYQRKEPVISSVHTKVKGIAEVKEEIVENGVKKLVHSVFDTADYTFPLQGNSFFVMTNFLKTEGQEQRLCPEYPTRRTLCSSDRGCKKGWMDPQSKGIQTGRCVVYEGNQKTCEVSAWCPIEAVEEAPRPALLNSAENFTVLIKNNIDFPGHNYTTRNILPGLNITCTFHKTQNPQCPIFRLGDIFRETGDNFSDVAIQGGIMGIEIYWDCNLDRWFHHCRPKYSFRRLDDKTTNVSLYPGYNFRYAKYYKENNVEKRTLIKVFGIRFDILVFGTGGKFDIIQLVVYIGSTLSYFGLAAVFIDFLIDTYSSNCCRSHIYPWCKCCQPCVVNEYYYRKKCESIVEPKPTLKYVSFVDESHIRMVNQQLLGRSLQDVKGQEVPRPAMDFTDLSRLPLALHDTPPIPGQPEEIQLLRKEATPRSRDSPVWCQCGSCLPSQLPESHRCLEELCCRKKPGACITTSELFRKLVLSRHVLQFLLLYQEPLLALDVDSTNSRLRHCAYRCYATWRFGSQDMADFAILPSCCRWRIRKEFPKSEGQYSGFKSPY
# Experiment: IL-1β release assay in differentiated THP-1 cells stimulated with BzATP (Example 9)
# Type: cell-based
# Parameters: inhibition: dose or concentration left out as unconfirmed
# Conditions: 0.1 μM compound; differentiated THP-1 cells, BzATP 250 uM; '*' class symbols; read-out: IL-1β % Inhib. (asterisk classes, 0.1 μM)
# Procedure, shortened: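 IC50 derived by four-parameter logistic fit of percent inhibition of IL-1β release, measured by ELISA after 45 min stimulation with 250 uM BzATP. Cells: THP-1 differentiated 16 h with 100 ng/mL LPS plus IFN-γ, LPS-primed 2 h, compound added 30 min beforehand.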
row,inhibition at 0.1 µM [%],Structure (SMILES)
1,0 to 25,COc1ccccc1CCC(=O)Nc1cccc2c(=O)n(CCN(C)C)ccc12 [Compound 1149]
2,0 to 25,Cc1cccc(C(=O)Nc2cccc3c(=O)n(CCN4CCOCC4)ccc23)c1 [Compound 1197]

# Same assay, conditions: 0.1 μM compound; differentiated THP-1 cells, BzATP 250 uM; symbols * to ****; read-out: IL-1β % Inhib. (asterisk symbols: at 0.1 μM)
row,inhibition at 0.1 µM [%],Structure (SMILES)
1,0 to 25,CCOc1ccc(C(=O)Nc2cccc3c(=O)n(CCN(C)C)ccc23)c(O)c1 [Compound 1397]
2,0 to 25,Cc1ccccc1CCC(=O)Nc1cccc2c(=O)n(CC3CCOCC3)ccc12 [Compound 1396]
3,51 to 75,COc1cc(OC)cc(C(=O)Nc2cccc3c(=O)n(Cc4cccnc4)ccc23)c1 [Compound 1346]

# Same assay, conditions: 0.3 μM compound; differentiated THP-1 cells, BzATP 250 uM; "+" class symbols; read-out: IL-1β % Inhib. @ 0.3 μM
row,inhibition at 0.3 µM [%],Structure (SMILES)
1,0 to 25,CS(=O)(=O)CCn1ccc2c(NC(=O)CC3(O)CCCCCC3)cccc2c1=O [Compound 1625]
2,26 to 50,O=C(Cc1cccc(C(F)(F)F)c1F)Nc1cccc2c(=O)n(Cc3ccccn3)ccc12 [Compound 1627]

# Same assay, conditions: 0.3 μM compound; differentiated THP-1 cells, BzATP 250 uM; '+' class symbols; read-out: IL-1β % Inhib. @ 0.3 μM
row,Structure (SMILES),inhibition at 0.3 µM [%]
1,Cc1ccc(Cl)cc1C(=O)Nc1cccc2c(=O)n(CCN(C)C)ccc12 [Compound 1180],0 to 25
2,Cc1ccc(C)c(C(=O)Nc2cccc3c(=O)n(CCN(C)C)ccc23)c1 [Compound 1142],0 to 25
3,CCOc1ccc(CC(=O)Nc2cccc3c(=O)n(CC4CCOCC4)ccc23)cc1 [Compound 1106],0 to 25
4,O=C(Nc1cccc2c(=O)n(CC3CCOCC3)ccc12)c1cccc2ccccc12 [Compound 1096],0 to 25
5,Cc1cc(C)c(CC(=O)Nc2cccc3c(=O)n(CC(C)(C)C)ccc23)c(C)c1 [Compound 1050],0 to 25
6,O=C(Nc1cccc2c(=O)n(CC3CCOCC3)ccc12)c1ccccc1Cl [Compound 1082],26 to 50
7,Cc1c(Cl)cccc1C(=O)Nc1cccc2c(=O)n(CCN(C)C)ccc12 [Compound 1172],0 to 25
8,CN(C)CCn1ccc2c(NC(=O)Cc3ccccc3)cccc2c1=O [Compound 1019],0 to 25
9,O=C(CCc1cccc(Cl)c1)Nc1cccc2c(=O)n(CC3CCOCC3)ccc12 [Compound 1135],0 to 25
10,O=C(Nc1cccc2c(=O)n(CCN3CCOCC3)ccc12)c1ccc(Cl)cc1Cl [Compound 1189],0 to 25
11,CN(C)CCn1ccc2c(NC(=O)CCc3ccccc3)cccc2c1=O [Compound 1003],0 to 25
12,Cc1ccc(CCC(=O)Nc2cccc3c(=O)n(CCN(C)C)ccc23)cc1 [Compound 1002],≥ 76
13,COc1ccc(CC(=O)Nc2cccc3c(=O)n(CCN(C)C)ccc23)cc1C [Compound 1178],0 to 25
14,CC(=O)OCCn1ccc2c(NC(=O)c3ccc(C(F)(F)F)cc3C(F)(F)F)cccc2c1=O [Compound 1014],26 to 50
15,CN(C)CCn1ccc2c(NC(=O)CCc3ccc(Cl)cc3)cccc2c1=O [Compound 1176],0 to 25

# Results, then the compound that gave them:
row,inhibition at 0.3 µM [%],Structure (SMILES)
1,0 to 25,CCOc1ccc(C(=O)Nc2cccc3c(=O)n(Cc4cccnc4)ccc23)c(O)c1 [Compound 1072]
2,0 to 25,COc1cc(OC)cc(C(=O)Nc2cccc3c(=O)n(CC4CCOCC4)ccc23)c1 [Compound 1089]
3,0 to 25,COc1c(C)cc(C(=O)Nc2cccc3c(=O)n(CC4CCOCC4)ccc23)cc1C [Compound 1112]
4,0 to 25,CN(C)CCn1ccc2c(NC(=O)c3cc4cc(Cl)ccc4o3)cccc2c1=O [Compound 1182]
5,0 to 25,COc1cc(CC(=O)Nc2cccc3c(=O)n(CC4CCOCC4)ccc23)cc(OC)c1 [Compound 1111]
6,≥ 76,COc1cccc(CC(=O)Nc2cccc3c(=O)n(CCN(C)C)ccc23)c1 [Compound 1021]
7,51 to 75,COc1ccc(CC(=O)Nc2cccc3c(=O)n(CCN(C)C)ccc23)cc1 [Compound 1001]

# Same assay, conditions: 0.3 μM compound; differentiated THP-1 cells, BzATP 250 uM; symbols + to ++++; read-out: IL-1β % Inhib. @ 0.3 μM
row,Structure (SMILES),inhibition at 0.3 µM [%]
1,Cc1ccc(Cl)c(C(=O)Nc2cccc3c(=O)n(CC(C)(C)C)ccc23)c1 [Compound 1282],0 to 25
2,CCOc1ccccc1CC(=O)Nc1cccc2c(=O)n(CCOC)ccc12 [Compound 1336],0 to 25
3,CN(C)CCn1ccc2c(NC(=O)Cc3ccc(Cl)c(Cl)c3)cccc2c1=O [Compound 1386],51 to 75
4,CC(C)(C)Cn1ccc2c(NC(=O)Cc3ccc4c(c3)OCO4)cccc2c1=O [Compound 1265],26 to 50
5,CC(=O)OCCn1ccc2c(NC(=O)Cc3cc(C(F)(F)F)cc(C(F)(F)F)c3)cccc2c1=O [Compound 1378],51 to 75
6,COCCn1ccc2c(NC(=O)CC3CC4CC[C@H]3C4)cccc2c1=O (some centres unmarked) [Compound 1326],≥ 76
7,O=C(Cc1ccc2c(c1)OCO2)Nc1cccc2c(=O)n(CCN3CCOCC3)ccc12 [Compound 1217],0 to 25

# The remaining lines, values ahead:
row,inhibition at 0.3 µM [%],Structure (SMILES)
1,0 to 25,COc1cccc(CC(=O)Nc2cccc3c(=O)n(Cc4cccnc4)ccc23)c1 [Compound 1353]
2,0 to 25,COc1ccccc1CC(=O)Nc1cccc2c(=O)n(Cc3cccnc3)ccc12 [Compound 1351]
3,0 to 25,COc1ccc(CC(=O)Nc2cccc3c(=O)n(CC(C)(C)C)ccc23)c(OC)c1 [Compound 1278]
4,0 to 25,COCCn1ccc2c(NC(=O)c3ccc(OC)c(C)c3)cccc2c1=O [Compound 1340]
5,0 to 25,COCCn1ccc2c(NC(=O)Cc3ccc(OC)cc3OC)cccc2c1=O [Compound 1333]
6,0 to 25,Cc1ccc(C(=O)Nc2cccc3c(=O)n(CC(C)(C)C)ccc23)cc1Cl [Compound 1268]
7,0 to 25,COCCn1ccc2c(NC(=O)Cc3ccc(OC)cc3)cccc2c1=O [Compound 1316]
8,26 to 50,O=C(Nc1cccc2c(=O)n(Cc3cccnc3)ccc12)c1ccccc1Cl [Compound 1344]

# Same assay, conditions: THP-1; read-out: IL-1β % Inhib.
row,Structure (SMILES),inhibition [%]
1,O=C(Nc1cccc2c(=O)n(Cc3ccc(OC(F)(F)F)cc3)ccc12)[C@@]12C[C@@H]3C[C@@H](C[C@@H]1C3)C2 [Compound 1594],0 to 25
2,Cc1cccc(C(=O)Nc2cccc3c(=O)n(CCCN4CCCC4=O)ccc23)c1 [Compound 1513],0 to 25
3,C[C@H]1CC[C@H](C(=O)Nc2cccc3c(=O)n(CCCN4CCCC4=O)ccc23)CC1 [Compound 1494],0 to 25
4,Cc1cccc(C(=O)Nc2cccc3c(=O)n(CC4CCN(C)CC4)ccc23)c1 [Compound 1465],0 to 25
5,COCCn1ccc2c(NC(=O)Cc3ccccc3F)cccc2c1=O [Compound 1435],0 to 25
6,Cc1c(Cl)cccc1C(=O)Nc1cccc2c(=O)n(CC3CCN(C)CC3)ccc12 [Compound 1481],0 to 25
7,Cc1ccccc1CCC(=O)Nc1cccc2c(=O)n(CCN(C)C)ccc12 [Compound 1399],0 to 25
8,O=C(Nc1cccc2c(=O)n(CCN3CCOCC3)ccc12)c1cccc2ccccc12 [Compound 1410],0 to 25
9,O=C(Nc1cccc2c(=O)n(CCCN3CCCC3=O)ccc12)c1cc(Cl)cc(Cl)c1 [Compound 1511],0 to 25
10,O=C(CCCc1ccccc1)Nc1cccc2c(=O)n(CCCN3CCCC3=O)ccc12 [Compound 1525],0 to 25
11,CCOc1ccc(CC(=O)Nc2cccc3c(=O)n(Cc4ccc(OC(F)(F)F)cc4)ccc23)cc1 [Compound 1584],0 to 25

# Results, then the compound that gave them:
row,inhibition [%],Structure (SMILES)
1,26 to 50,COCCn1ccc2c(NC(=O)c3cc(C)ccc3C)cccc2c1=O [Compound 1427]
2,0 to 25,Cc1ccc(C(=O)Nc2cccc3c(=O)n(Cc4ccc(OC(F)(F)F)cc4)ccc23)c(C)c1 [Compound 1564]
3,0 to 25,COCCn1ccc2c(NC(=O)Cc3ccccc3OC)cccc2c1=O [Compound 1437]
4,0 to 25,O=C(Cc1csc2ccccc12)Nc1cccc2c(=O)n(Cc3cccnc3)ccc12 [Compound 1453]
5,0 to 25,COc1cc(OC)cc(C(=O)Nc2cccc3c(=O)n(CC4CCN(C)CC4)ccc23)c1 [Compound 1464]
6,0 to 25,COc1cc(CC(=O)Nc2cccc3c(=O)n(CC4CCN(C)CC4)ccc23)cc(OC)c1 [Compound 1477]
7,0 to 25,O=C(Nc1cccc2c(=O)n(Cc3ccc(OC(F)(F)F)cc3)ccc12)c1ccc2ccccc2c1 [Compound 1574]
8,0 to 25,Cc1cc(C(=O)Nc2cccc3c(=O)n(Cc4ccc(OC(F)(F)F)cc4)ccc23)ccc1Cl [Compound 1559]
9,0 to 25,COCCn1ccc2c(NC(=O)c3ccc(C(C)(C)C)cc3)cccc2c1=O [Compound 1430]

# Same assay, conditions: THP-1 cells, BzATP-stimulated IL-1β release, four parameter logistic fit
row,Structure (SMILES),pIC50
1,CS(=O)(=O)CCn1ccc2c(NC(=O)CC3(O)CCCCCC3)cccc2c1=O [Compound 1625],< 6.00
2,CN(C)CCn1ccc2c(NC(=O)Cc3ccc(Cl)c(Cl)c3)cccc2c1=O [Compound 1386],6.62
3,O=C(Cc1cccc(C(F)(F)F)c1F)Nc1cccc2c(=O)n(Cc3ccccn3)ccc12 [Compound 1627],6.38
4,CC(=O)OCCn1ccc2c(NC(=O)Cc3cc(C(F)(F)F)cc(C(F)(F)F)c3)cccc2c1=O [Compound 1378],6.92
5,CN(C)CCn1ccc2c(NC(=O)Cc3ccccc3)cccc2c1=O [Compound 1019],< 6.00
6,CN(C)CCn1ccc2c(NC(=O)CCc3ccccc3)cccc2c1=O [Compound 1003],< 6.00
7,Cc1ccc(CCC(=O)Nc2cccc3c(=O)n(CCN(C)C)ccc23)cc1 [Compound 1002],7.14
8,CC(=O)OCCn1ccc2c(NC(=O)c3ccc(C(F)(F)F)cc3C(F)(F)F)cccc2c1=O [Compound 1014],6.49

# Results, then the compound that gave them:
row,pIC50,Structure (SMILES)
1,< 6.00,COc1cccc(CC(=O)Nc2cccc3c(=O)n(CCN(C)C)ccc23)c1 [Compound 1021]
2,6.62,COc1ccc(CC(=O)Nc2cccc3c(=O)n(CCN(C)C)ccc23)cc1 [Compound 1001]
